Data as given in ChEMBL document CHEMBL3046838, “In vitro and in silico exploration of IL-2 inhibition by small drug-like molecules” (Med Chem Res, 2013).
≈ marks a conversion by molar mass, not a printed value.

Tests used:
[1] = tested on: Blood; assay: Inhibition of ROS production in human whole blood after 30 mins by luminol-based chemiluminescence assay; assay type: functional, tissue-based; conditions: 0.5 h
[2] = tested on: PBMC; assay: Immunosuppressive activity in human PBMC assessed as inhibition of PHA/PMA-induced IL-2 production after 18 hrs by ELISA; assay type: functional, cell-based
[3] = tested on: PBMC; assay: Immunosuppressive activity in human PBMC assessed as inhibition of PHA-induced T cell proliferation after 72 hrs by [3H]thymidine incorporation assay; assay type: functional, cell-based
[4] = tested on: CC-1; assay: Cytotoxicity against rat CC1 after 48 hrs by MTT assay; assay type: cell-based; conditions: CC-1, 48 h
[5] = tested on: 3T3-L1; assay: Cytotoxicity against mouse 3T3L1 after 48 hrs by MTT assay; assay type: cell-based; conditions: 3T3-L1, 48 h
[6] = biological target: T1, Interleukin-2 receptor subunit alpha (Homo sapiens, UniProt P01589); assay: Competitive inhibition of IL2 receptor alpha (unknown origin)
T1 sequence (P01589 whole entry): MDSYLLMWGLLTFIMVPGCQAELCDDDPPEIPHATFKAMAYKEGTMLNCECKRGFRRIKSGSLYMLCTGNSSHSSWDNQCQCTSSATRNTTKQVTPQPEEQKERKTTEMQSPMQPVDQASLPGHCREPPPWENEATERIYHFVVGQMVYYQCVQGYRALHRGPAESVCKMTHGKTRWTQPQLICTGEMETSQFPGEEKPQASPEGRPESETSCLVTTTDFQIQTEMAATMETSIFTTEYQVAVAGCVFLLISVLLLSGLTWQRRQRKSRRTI

With `CC1CC(=O)Nc2cc(N)ccc2N1` (configuration not stated) the IC50 [1] was 4.5 µg/mL (≈ 23.5 µM), the IC50 [2] was 13 µg/mL (≈ 68 µM) and the IC50 [3] was 4.4 µg/mL (≈ 23 µM).
Compound `CC1(C)CC(=O)Nc2cc([N+](=O)[O-])ccc2N1` has an IC50 [1] of 12.4 µg/mL (≈ 52.7 µM).
For `CC1C/C(=N\NC(=O)Nc2ccccc2)Nc2cc([N+](=O)[O-])ccc2N1` (configuration not stated), the IC50 [3] was 25.5 µg/mL (≈ 72 µM).
For `Nc1ccc(C(=O)/C=C/c2cccc(Cl)c2)cc1`, the IC50 [4] was 16.7 µg/mL (≈ 64.8 µM), the IC50 [5] was 9.5 µg/mL (≈ 36.9 µM) and the IC50 [1] was 24.4 µg/mL (≈ 94.7 µM). The IC50 [2] was 2.5 µg/mL (≈ 9.7 µM) and the IC50 [3] was less than 0.5 µg/mL.
`Cc1ccc(/C=C/C(=O)c2ccc(N)cc2)cc1` was tested, and the IC50 [1] was 12.4 µg/mL (≈ 52.3 µM), the IC50 [2] was 15.1 µg/mL (≈ 63.6 µM) and the IC50 [3] was 3.2 µg/mL (≈ 13.5 µM).
With `O=C(/C=C/c1ccccc1)c1cccc(O)c1` the IC50 [1] was 4.8 µg/mL (≈ 21.4 µM), the IC50 [2] was 14.2 µg/mL (≈ 63.3 µM) and the IC50 [3] was 8.2 µg/mL (≈ 36.6 µM).
In the case of `Cc1ccc(/C=C/C(=O)c2ccccc2)cc1`, the IC50 [1] is reported as 31 µg/mL (≈ 139 µM), the IC50 [2] is reported as 15.6 µg/mL (≈ 70.2 µM) and the IC50 [3] is reported as 7.8 µg/mL (≈ 35.1 µM).
`COC(=O)[C@H](Cc1ccc(C#Cc2ccccc2)cc1)NC(=O)C[C@H]1CCCN(C(=N)N)C1` showed an IC50 [6] of 6 µM.
`O=C(/C=C/c1ccccc1)c1ccccc1O` [2'-HYDROXYCHALCONE] gave an IC50 [2] of 19.7 µg/mL (≈ 87.8 µM) and an IC50 [3] of 11 µg/mL (≈ 49.1 µM).
